Data taken from article PMC9518283 (Journal of Enzyme Inhibition and Medicinal Chemistry, 2022).
Values joined by “and” are separate entries in the source; they are usually repeats but may differ in a detail not shown here. Equal entries are not always repeated.

How the values were obtained:
[1] = molecular target: T1, hMAO-B (Homo sapiens, UniProt P27338); test: biochemical; conditions: for % of MAO-B activity (1 µM) / % of MAO-B activity (10 µM): residual enzyme activity; for % of MAO-B activity (1 µM): compound at 1 µM; for % of MAO-B activity (10 µM): compound at 10 µM; for IC50: IC50 hMAO-B ± STD, mean of at least three experiments
T1 construct: purchased Sigma-Aldrich (St. Louis, MO, USA)
T1 sequence (P27338 1-520): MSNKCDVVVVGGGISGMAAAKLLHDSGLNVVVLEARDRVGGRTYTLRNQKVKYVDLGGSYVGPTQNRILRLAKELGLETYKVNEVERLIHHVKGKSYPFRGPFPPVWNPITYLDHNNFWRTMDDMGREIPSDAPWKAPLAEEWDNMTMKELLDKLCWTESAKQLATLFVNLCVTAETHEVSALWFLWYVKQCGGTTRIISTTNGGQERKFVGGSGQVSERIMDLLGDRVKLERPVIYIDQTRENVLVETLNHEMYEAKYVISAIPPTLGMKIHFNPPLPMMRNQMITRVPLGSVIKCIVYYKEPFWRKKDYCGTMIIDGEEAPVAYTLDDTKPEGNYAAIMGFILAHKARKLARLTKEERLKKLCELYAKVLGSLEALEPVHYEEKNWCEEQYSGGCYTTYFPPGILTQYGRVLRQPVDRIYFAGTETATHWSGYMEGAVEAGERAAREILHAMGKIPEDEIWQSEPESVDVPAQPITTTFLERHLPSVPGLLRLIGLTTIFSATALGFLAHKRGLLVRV
Method: (§1) The hMAO-A and hMAO-B enzymes were purchased from Sigma-Aldrich (St. Louis, MO, USA). […] The mixture was pre-incubated at 37 °C for 5 min and subsequently substrate kynuramine was added to the final concentration of 60 µM in the case of hMAO-A and 30 µM in the case of hMAO-B. The final volume of reaction mixture was 0.1 mL. The whole reaction mixture was incubated at 37 °C for 30 min. The reaction was stopped by the addition of 200 µL acetonitrile/methanol mixture (ratio 1:1) and cooling down to 0 °C. […] Eluents: (A) 0.1% formic acid in water; (B) 0.1% formic acid in acetonitrile.

[2] = system: human neuroblastoma cell line (SH-SY5Y); test: MTT cytotoxicity on SH-SY5Y; conditions: 24 h, read-out: IC50 ± SEM SH-SY5Y
Method: (§4) Briefly, HepG2 and SH-SY5Y cells were seeded into 96-well plates in 100 µL and density of 15 × 10^3 and 20 × 10^3 cells per well, respectively. Cells were allowed to attach overnight. The stock solutions of tested compounds were prepared in DMSO (Sigma-Aldrich), further serially diluted in cultivation medium and added to the cells in 96-well culture plate. […] After 24 h was the medium aspirated and 100 µL MTT solution (0.5 mg/mL) in serum free DMEM medium was added to each well. The cells were then incubated for one hour. The medium was then aspirated and purple crystals of MTT formazan were dissolved in 100 µL DMSO under shaking. The absorbance was measured with a multimode microplate reader Spark® (Tecan Trading AG, Männedorf, Switzerland) at test wavelength of 570 nm.
(§5) The data were obtained from three independent experiments performed in triplicates. The IC50 values were expressed as a mean ± standard error of the mean (SEM).

[3] = molecular target: T2, hMAO-A (Homo sapiens, UniProt P21397); test: hMAO-A inhibition, kynuramine substrate, HPLC-MS; type: biochemical; conditions: residual enzyme activity; for % of MAO-A activity (1 µM): compound at 1 µM; for % of MAO-A activity (10 µM): compound at 10 µM
T2 construct: purchased Sigma-Aldrich (St. Louis, MO, USA)
T2 sequence (P21397 1-527): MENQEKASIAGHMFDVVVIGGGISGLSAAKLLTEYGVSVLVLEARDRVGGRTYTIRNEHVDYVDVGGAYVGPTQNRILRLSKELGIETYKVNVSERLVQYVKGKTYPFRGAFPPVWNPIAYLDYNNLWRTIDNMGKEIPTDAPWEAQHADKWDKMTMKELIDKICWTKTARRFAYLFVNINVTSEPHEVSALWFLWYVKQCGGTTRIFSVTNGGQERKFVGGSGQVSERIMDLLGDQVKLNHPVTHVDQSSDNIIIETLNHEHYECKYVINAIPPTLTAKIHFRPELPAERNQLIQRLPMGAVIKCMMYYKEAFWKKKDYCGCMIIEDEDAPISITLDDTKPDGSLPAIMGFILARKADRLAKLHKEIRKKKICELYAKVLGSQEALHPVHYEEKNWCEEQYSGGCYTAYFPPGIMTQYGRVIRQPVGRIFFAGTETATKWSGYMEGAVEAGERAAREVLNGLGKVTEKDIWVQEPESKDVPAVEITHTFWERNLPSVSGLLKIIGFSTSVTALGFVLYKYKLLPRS
Method: as §1

[4] = system: human hepatocellular carcinoma cell line (HepG2); test: MTT cytotoxicity on HepG2; conditions: HepG2, 24 h, read-out: IC50 ± SEM HepG2
Method: as §4, §5

[5] = in vitro; conditions: PAMPA, pH 7.4
Method: (§6) The PAMPA was used as the non-cell-based in vitro assay to predict BBB penetration carried out in a coated 96-well membrane filter[44]^,[52]. […] Tested compounds were dissolved first in DMSO and then diluted with PBS (pH 7.4) to achieve the final concentration of 100 µM in the donor well. […] An aliquot of 300 µL of the donor solution (VD) was added to the donor wells and the donor filter plate was carefully put on the acceptor plate so that coated membrane was "in touch" with both donor solution and acceptor buffer. […] The concentration of the tested compound in both the donor and acceptor wells was assessed after 3, 4, 5, and 6 h of incubation, respectively, in quadruplicate using a multi-plate reader Spark (Tecan GmbH, Grödig, Austria) at the maximum absorption wavelength of each compound. Also prepared were solutions at the theoretical equilibrium of the given compound (i.e. the theoretical concentration if the donor and acceptor compartment were simply combined).

[6] = class from PAMPA Pe
Method: as §6

[7] = molecular target: human AChE (hAChE; EC 3.1.1.7) (Homo sapiens, UniProt P22303); test: biochemical; conditions: for IC50: mean of at least three experiments, read-out: IC50 hAChE ± STD; for SI (hBChE/hAChE): ratio IC50(hBChE)/IC50(hAChE)
Sequence of human AChE (hAChE; EC 3.1.1.7) (P22303 32-614): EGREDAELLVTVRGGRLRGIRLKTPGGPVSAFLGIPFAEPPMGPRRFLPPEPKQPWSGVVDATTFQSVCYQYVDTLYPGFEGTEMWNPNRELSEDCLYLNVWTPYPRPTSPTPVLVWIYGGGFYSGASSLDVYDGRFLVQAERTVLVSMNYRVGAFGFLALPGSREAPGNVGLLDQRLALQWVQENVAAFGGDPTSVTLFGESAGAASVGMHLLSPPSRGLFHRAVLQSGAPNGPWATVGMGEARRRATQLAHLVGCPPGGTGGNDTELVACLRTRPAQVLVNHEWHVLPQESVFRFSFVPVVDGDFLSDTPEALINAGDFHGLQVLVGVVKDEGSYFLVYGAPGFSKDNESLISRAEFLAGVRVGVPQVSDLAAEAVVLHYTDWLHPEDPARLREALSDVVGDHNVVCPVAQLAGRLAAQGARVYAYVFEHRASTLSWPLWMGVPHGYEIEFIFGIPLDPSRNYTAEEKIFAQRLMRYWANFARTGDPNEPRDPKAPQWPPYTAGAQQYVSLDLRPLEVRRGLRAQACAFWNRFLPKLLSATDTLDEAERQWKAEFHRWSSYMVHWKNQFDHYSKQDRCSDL
Method: (§2) For that purpose, Ellman’s colorimetric assay was used[35].
(§3) The catalytic activity of both cholinesterases was determined by standard Ellman’s method adapted for 96-well plates. All tested inhibitors were freshly prepared in 50% DMSO/50% methanol at 10 mM concentration as stock solutions and then diluted in 0.1 M phosphate buffer, pH 7.4. […] The mixture was pre-incubated at 37 °C for 15 min and subsequently substrate (acetylthiocholine iodide or butyrylthiocholine iodide) was added to the final concentration of 1000 μM. The final volume of the reaction was 100 μL. The catalytic activity was evaluated as the amount of product (%) formed by enzyme after 10 min of incubation at 37 °C. The IC50 values from three independent experiments for each inhibitor concentration in triplicate were calculated using non-linear regression curve analysis in Prism version 7 Software (GraphPad Software Inc., San Diego, CA).

[8] = molecular target: human butyrylcholinesterase (hBChE; EC 3.1.1.8) (Homo sapiens, UniProt P06276); test: biochemical; conditions: mean of at least three experiments; read-out: IC50 hBChE ± STD
Sequence of human butyrylcholinesterase (hBChE; EC 3.1.1.8) (P06276 29-602): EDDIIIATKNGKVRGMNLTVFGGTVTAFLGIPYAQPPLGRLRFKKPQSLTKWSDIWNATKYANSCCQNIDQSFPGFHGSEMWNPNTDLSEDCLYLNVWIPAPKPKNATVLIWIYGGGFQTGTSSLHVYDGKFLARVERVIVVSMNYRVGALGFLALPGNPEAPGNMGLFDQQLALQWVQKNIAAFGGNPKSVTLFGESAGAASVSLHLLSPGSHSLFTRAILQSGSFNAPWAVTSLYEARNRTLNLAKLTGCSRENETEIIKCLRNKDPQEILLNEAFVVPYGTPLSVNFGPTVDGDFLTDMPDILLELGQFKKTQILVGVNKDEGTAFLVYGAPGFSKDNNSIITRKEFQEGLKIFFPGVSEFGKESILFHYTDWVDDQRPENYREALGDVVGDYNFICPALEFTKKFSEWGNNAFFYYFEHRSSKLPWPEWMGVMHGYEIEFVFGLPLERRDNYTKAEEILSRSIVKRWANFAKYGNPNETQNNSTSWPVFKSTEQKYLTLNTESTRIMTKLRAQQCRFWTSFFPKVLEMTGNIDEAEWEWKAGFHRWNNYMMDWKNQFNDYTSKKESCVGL
Method: as §2, §3

[9] = system: human hepatic stellate cells; set-up: method as in PMID 25792506; conditions: cited from earlier work
[10] = system: SH-SY5Y cells; set-up: method as in PMID 25792506; conditions: 10, 50 and 100 µM, MTT; cited from earlier work

Row | SMILES | % of MAO-B activity (1 µM) [1] [%] | % of MAO-B activity (10 µM) [1] [%] | IC50 [2] [nM] | % of MAO-A activity (1 µM) [3] [%] | % of MAO-A activity (10 µM) [3] [%] | IC50 [4] [nM] | Papp at 100 µM [5] [×10⁻⁶ cm/s] | CNS predicted availability [6] | IC50 [1] | IC50 [7] [nM] | SI (hBChE/hAChE) [7] | IC50 [8] [nM] | Papp [5] [×10⁻⁶ cm/s] | hepatotoxicity ([9]; 100 µM) | cell survival rate ([9]; 200 µM) [%] | effect on the viability of SH-SY5Y cells [10]
1 | Nc1c2c(nc3cc(Cl)ccc13)CCCC2 [6-Chlorotacrine, 6-chlorotacrine, reference compound] | 80 | 84 | 50400 ± 1280 | 61 | 48 | 43200 ± 1170 | 11 ± 0.5 | CNS+ (CNS + (high BBB permeation predicted): Pe (×10^−6 cm s^−1) > 4.0) |  |  |  |  |  |  |  | 
2 | C=CCNc1c2c(nc3ccc(Oc4ccccc4)cc13)CCCC2.Cl [Compound 7, 7-Phenoxy-N-(prop-2-en-1-yl)-1,2,3,4-tetrahydroacridin-9-amine hydrochloride] | 5 | 2 | 12400 ± 440 | 99 | 90 | 10300 ± 830 | 4.22 ± 0.17 |  | 163 nM | 1120 ± 21 | 2.47 | 2770 ± 133 |  |  |  | 
3 | COc1ccc2nc3c(c(N)c2c1)CCCC3 [Compound 7-MEOTA, 7-methoxytacrine, reference compound] | 78 | 76 | 53260 ± 380 | 41 | 42 | 44400 ± 3350 |  | CNS+ (CNS + (high BBB permeation predicted): Pe (×10^−6 cm s^−1) > 4.0) |  |  |  |  | 17 ± 3.6 |  |  | 
4 | C#CCNc1c2c(nc3ccccc13)CCCC2 [Compound 9] | 83 | 61 |  | 94 | 56 |  |  |  |  | 94 ± 0.8 | 1.72 | 162 ± 8 |  | nearly no hepatotoxicity | 91.38 | nearly no effect on the viability
5 | C#CCNc1c2c(nc3ccc(Oc4ccccc4)cc13)CCCC2.Cl [Compound 15, 7-Phenoxy-N-(prop-2-yn-1-yl)-1,2,3,4-tetrahydroacridin-9-amine hydrochloride] | 8 | 3 | 23400 ± 2550 | 41 | 51 | 16900 ± 770 | 10.4 ± 0.94 |  | 40 nM and 40.4 nM | 1470 ± 24 | 0.45 | 659 ± 77 |  |  |  | 
6 | C#CCN(CC#C)CCCNc1c2c(nc3ccccc13)CCCC2.Cl.Cl [Compound 20, N,N-Di(prop-2-yn-1-yl)-N'-(1,2,3,4-tetrahydroacridin-9-yl)propane-1,3-diamine dihydrochloride] | 148 | 96 | 31400 ± 1550 | 78 | 33 | 38300 ± 1750 | 12.2 ± 1.12 |  |  | 198 ± 24 | 0.39 | 78 ± 3 |  |  |  | 
7 | C#CCNCCCNc1c2c(nc3ccccc13)CCCC2.Cl.Cl [Compound 21, N-(Prop-2-yn-1-yl)-N'-(1,2,3,4-tetrahydroacridin-9-yl)propane-1,3-diamine dihydrochloride] | 88 | 90 | 38800 ± 750 | 47 | 54 | 25900 ± 730 | 6.07 ± 0.53 |  |  | 95 ± 1 | 0.98 | 93 ± 3 |  |  |  | 
8 | C#CCNCCCNc1c2c(nc3ccc(Oc4ccccc4)cc13)CCCC2.Cl.Cl [Compound 26, N-(7-Phenoxy-1,2,3,4-tetrahydroacridin-9-yl)-N'-(prop-2-yn-1-yl)-propane-1,3-diamine dihydrochloride] | 14 | 4 |  | 88 | 79 |  |  |  |  | 1040 ± 40 | 1.02 | 1060 ± 62 |  |  |  | 
9 | C=CCNc1ccnc2cc(Cl)ccc12.Cl [Compound 27, 7-Chloro-N-(prop-2-en-1-yl)quinolin-4-amine hydrochloride] | 150 | 127 |  | 54 | 19 |  |  |  |  | 10700 ± 406 | 6.18 | 66300 ± 2070 |  |  |  | 
